Experimental data from patent US9763904B2, “Position-specific asymmetric deuterium enriched catecholamine derivatives and medicaments comprising said compounds” (Teva Pharmaceuticals International GmbH, priority 2013, dated 2017).
Entries after “also recorded” stand apart in the source; their conditions may differ. Like-named read-outs stand apart in the source and are kept apart here.

Assays:
[1] = system: 6-hydroxydopamine (6-OHDA) rodent model of Parkinson's disease; assay: Drug induced contralateral rotations (anti-Parkinson effect, motor performance) in unilaterally 6-OHDA lesioned rats; format: in vivo, Sprague-Dawley rats; conditions: 6-OHDA rats; for Motor Effect [% of L-DOPA effect]: at equipotent dose, contralateral rotations; for Equipotent Dose [% of L-DOPA dose]: dose causing the same effect on motor performance as L-DOPA; for effect on motor performance (in words): comparison between test items
[2] = system: 6-hydroxydopamine (6-OHDA) rodent model of Parkinson's disease; assay: Dyskinesia: scoring of abnormal involuntary movements (limb, axial, orolingual) after repeated treatment in 6-OHDA lesioned rats; format: in vivo, Sprague-Dawley rats
Text: The effects on motor performance and the development of dyskinesia following administration of deuterated L-DOPA derivatives with different deuterium enrichment at specific position of the side chain have been compared among each other and to L-DOPA in the 6-hydroxydopamine (6-OHDA) rodent model of Parkinson's disease.
Female Sprague-Dawley rats weighing approximately 225 g were housed on a 12-hour light/dark cycle and kept on standard laboratory diet and water ad libitum. The rats were lesioned by unilateral injection of the neurotoxin 6-OHDA. The lesion was validated by measuring the rotational activity after i.p. injection of 2.5 mg/kg D-amphetamine.
Dyskinesia was evaluated after repeated treatment by scoring the animals for abnormal involuntary movements. The rats were scored, by an observer blinded to the experimental design for limb, axial and orolingual involuntary movements.
The equipotent dose as percent of L-DOPA dose that caused the same effect on motor performance and dyskinesia observed following repeated administration of these doses is shown in Table 2.

striatal dopamine = conditions: compared to L-DOPA, prior art, cited from earlier work
Parkinson models = conditions: cited from earlier work
[3] = female, Sprague-Dawley, rat, in vivo
[4] = 6-OHDA rats, repeated administration, equipotent dose
[5] = repeated administration of equipotent doses, 6-OHDA rats

| Compound | Motor Effect [% of L-DOPA effect] [1] | Equipotent Dose [% of L-DOPA dose] [1] | Dyskinesia [% of dyskinesia caused by L-DOPA] [2, 3] | effect on motor performance (in words) [1] | dyskinesia at equipotent dose (in words) [2, 4] | Dyskinesia [% of dyskinesia caused by L-DOPA] [2, 5] | striatal dopamine levels / output (in words) (striatal dopamine; listed as α, β-D2-L-DOPA) | dyskinesia at equipotent dose (in words) ([2]; rat, in vivo) | equi-effective dose compared to L-DOPA (Parkinson models; Parkinson models, literature) | motor activity (in words) (Parkinson models; compared to L-DOPA, several Parkinson models) | striatal dopamine levels / output (in words) (striatal dopamine; listed as α, β,β-D3-L-DOPA) | striatal dopamine levels / output (in words) (striatal dopamine; listed as α,β,β-D3-L-DOPA) |
| --- | --- | --- | --- | --- | --- | --- | --- | --- | --- | --- | --- | --- |
| N[C@@H](Cc1ccc(O)c(O)c1)C(=O)O [Test Item A, L-2-amino-3-(3,4-dihydroxyphenyl) propionic acid] | 100% of L-DOPA effect | 100% of L-DOPA dose | 100% of dyskinesia caused by L-DOPA |  |  |  |  |  |  |  |  |  |
| [2H][C@@H](c1ccc(O)c(O)c1)[C@]([2H])(N)C(=O)O [Test Item B, S/S-2-amino-2,3-dideutero-3-(3,4-dihydroxyphenyl) propionic acid] | 100% of L-DOPA effect | 30% of L-DOPA dose |  | significantly greater compared to α, β, β-D3-L-DOPA [C] and L-DOPA [A] | not reduced in comparison to L-DOPA | 100% of dyskinesia caused by L-DOPA | increase and prolong the output of striatal dopamine significantly more than L-DOPA; also recorded: highest striatal dopamine concentrations |  |  |  |  |  |
| [2H]C([2H])(c1ccc(O)c(O)c1)[C@]([2H])(N)C(=O)O [Test Item C, L-2-amino-2,3,3-trideutero-3-(3,4-dihydroxyphenyl) propionic acid] | 100% of L-DOPA effect | 60% of L-DOPA dose | 50% of dyskinesia caused by L-DOPA |  |  |  |  | significantly less dyskinesia than L-DOPA | about 60% | improved motor activity compared to L-DOPA | increase and prolong the output of striatal dopamine significantly more than L-DOPA | higher longer-lasting striatal dopamine levels than L-DOPA |
| L-2-amino-2,3,3*-trideutero-3-(3,4-dihydroxyphenyl) propionic acid [Test Item D] | 100% of L-DOPA effect | 35% of L-DOPA dose |  | motor effect equivalent to the di-deuterated α, β-D2-L-DOPA [B] | reduction of dyskinesia as the triple-deuterated α, β, β-D3-L-DOPA [C] | 50% of dyskinesia caused by L-DOPA |  |  |  |  |  |  |
